Assay results taken from publication PMC10720383, “Acetylcholinesterase Inhibition in Rats and Humans Following Acute Fenitrothion Exposure Predicted by Physiologically Based Kinetic Modeling-Facilitated Quantitative In Vitro to In Vivo Extrapolation” (Environmental Science & Technology, 2023).
Read-outs that look alike come from different tables or passages of the source.

Experiments:
PON1 [1] = biological target: T1, PON1 (Homo sapiens, UniProt P27169); experiment: in vitro; format: in vitro ADME; conditions: both sexes, pH 7.4, gender-mixed
T1 construct: gender-mixed liver microsomes or plasma from rats and humans; tissue BioIVT (West Sussex, UK); host or cells: human plasma pooled from 25 donors, mixed gender
T1 sequence (P27169 whole entry): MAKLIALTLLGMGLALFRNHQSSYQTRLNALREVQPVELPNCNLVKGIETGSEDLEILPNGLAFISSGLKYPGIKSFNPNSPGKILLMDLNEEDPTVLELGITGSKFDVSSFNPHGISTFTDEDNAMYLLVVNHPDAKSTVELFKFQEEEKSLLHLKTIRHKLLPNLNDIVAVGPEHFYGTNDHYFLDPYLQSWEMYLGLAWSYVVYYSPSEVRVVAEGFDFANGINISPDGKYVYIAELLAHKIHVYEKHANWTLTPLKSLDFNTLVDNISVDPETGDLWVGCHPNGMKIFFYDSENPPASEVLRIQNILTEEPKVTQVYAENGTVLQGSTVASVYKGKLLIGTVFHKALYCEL
Description: (§1) In vitro incubations were performed to obtain kinetic parameters for the CYP450s-catalyzed conversion of FNT to FNO and MNP using gender-mixed rat and human liver microsomes. For the PON1-dominated detoxification of FNO to MNP, in vitro incubations were conducted with gender-mixed liver microsomes or plasma from rats and humans. Sample extraction with diisopropyl ether was performed before UPLC-PDA analysis. More details on in vitro incubations, sample extraction, UPLC-PDA analysis, and calculation of kinetic parameters are provided in the Supporting Information. […]
(§2) All incubations were performed in triplicate.
(§3) In vitro incubations for metabolic conversions of FNO
(§4) Incubations with liver microsomes and plasma were performed to obtain kinetic parameters for PON1-mediated detoxification of FNO to MNP based on a modified method (Zhao et al. 2021). Incubation conditions that were suitable for linearity with respect to time and microsomal protein or plasma protein concentration were defined (data not shown). The final incubation mixtures with a total volume of 200 µL contained 50 mM Tris-HCl (pH 7.4), 2 mM CaCl2 as PON1 activity simulator, and FNO at final concentrations ranging from 25 to 5000 µM (added from 100 times concentrated stock solutions in acetonitrile). Controls differed from test incubations by the absence of liver microsomes or plasma, which was replaced with Tris-HCl. After 1-min pre-incubation in a 37°C water bath, 2 µL rat or 10 µL human liver microsomes (final concentration 0.2 and 1 mg microsomal protein/mL for rat and human samples, respectively) was added to initiate the reaction. For the plasma incubations, 4 µL of rat plasma or 10 µL human plasma (final concentration 1.2 and 3.3 mg plasma protein/mL for rat and human samples, respectively) was used. Reactions were terminated after incubating 10 min for rat samples or 20 min for human samples by adding 20 µL ice-cold HClO4 (10%, v/v), and samples were kept on ice until further extraction. All incubations were performed in triplicate.
(§5) DIPE extraction of FNT and its metabolites (Zhao et al. 2019; Wang et al. 2022) was performed before UPLC analysis. […]
(§6) Finally, the obtained residue was redissolved in 100 μL methanol, and subsequently analyzed with […]
(§7) The quantification of FNT, FNO and MNP was conducted using a Shimadzu Nexera X2 liquid chromatography system (LC-30AD, Kyoto, Japan), connected with a photodiode array detector (SPD-M30A, Shimadzu, Kyoto, Japan). […]
(§8) temperature at 10°C during analysis. […] Quantification of FNT and FNO was performed by integrating peak areas at 269 nm and for MNP at 315 nm using calibration curves (r2 > 0.99) prepared with commercial standards. The limit of quantification was 0.1 µM for FNT, FNO and MNP when using an injection volume of 20 µL. […]

PON1 [2] = biological target: T2, PON1 (Rattus norvegicus, UniProt P55159); experiment: in vitro; format: in vitro ADME; conditions: both sexes, Sprague-Dawley, pH 7.4, gender-mixed
T2 construct: gender-mixed liver microsomes or plasma from rats and humans; tissue Corning (male) and Sigma-Aldrich (female), pooled; host or cells: Sprague-Dawley rat liver microsomes, gender-mixed
T2 sequence (P55159 whole entry): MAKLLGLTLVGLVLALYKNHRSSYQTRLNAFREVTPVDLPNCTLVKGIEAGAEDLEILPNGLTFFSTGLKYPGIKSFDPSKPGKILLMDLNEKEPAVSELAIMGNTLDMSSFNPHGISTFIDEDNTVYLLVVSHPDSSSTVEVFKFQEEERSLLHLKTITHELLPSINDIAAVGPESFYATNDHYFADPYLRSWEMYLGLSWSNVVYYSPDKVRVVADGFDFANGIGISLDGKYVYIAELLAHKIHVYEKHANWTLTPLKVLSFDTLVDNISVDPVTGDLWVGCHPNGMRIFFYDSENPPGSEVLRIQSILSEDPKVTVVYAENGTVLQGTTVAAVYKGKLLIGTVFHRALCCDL
Description: as §1, §2, §3, §4, §5, §6, §7, §8

[3] = cited from earlier work
erythrocyte AChE = conditions: human, highest dose tested, cited from earlier work

Structure (SMILES) | Km (PON1 [1]; human liver microsomes, read-out: Km, FNO to MNP (PON1-catalyzed), liver) [mM] | Km (PON1 [1]; human plasma, read-out: Km, FNO to MNP (PON1-catalyzed), plasma) [mM] | Km (PON1 [2]; rat liver microsomes, read-out: Km, FNO to MNP (PON1-catalyzed), liver) [mM] | Km (PON1 [2]; rat plasma, read-out: Km, FNO to MNP (PON1-catalyzed), plasma) [mM] | LogP, reported data ([3]; not clear if experimental or in silico, ref WHO 2004) | LogP, experimental data ([3]; ref JMPR 2003) | reported NOAEL (erythrocyte AChE; APVMA, single dose human study) [mg/kg BW] | reported NOAEL (erythrocyte AChE; JMPR, 4 day study in human volunteers) [mg/kg BW]
COP(=O)(OC)Oc1ccc([N+](=O)[O-])c(C)c1 [FNO, fenitrooxon] | 12.6 | 5.49 | 4.53 | 4.08 | – | – | – | –
COP(=S)(OC)Oc1ccc([N+](=O)[O-])c(C)c1 [FNT, O,O-dimethyl O-4-nitro-m-tolyl phosphorothioate] | – | – | – | – | 3.16 | 3.319 | 0.33 | 0.36
